In article PMC7057962, “The Two-Species Model of transketolase explains donor substrate-binding, inhibition and heat-activation” (Scientific Reports, 2020):
Like-named read-outs stand apart in the source and are kept apart here.

Experiments:
[1] = molecular target: T1, E. coli transketolase (TK; TKhigh / TKlow forms) (Escherichia coli, UniProt P27302, D469T/R520Q/S385Y); experiment: intrinsic fluorescence quenching (ex […] nm, em […] nm), double-Hill fit; format: binding
T1 construct: gene tktA; N-terminal His6 tag, expressed in E. coli XL10-gold from pQR791; homodimer; purified sample is a mix of TKhigh (oxidised) and TKlow subunits

[2] = molecular target: T2, E. coli transketolase (TK; TKhigh / TKlow forms) (Escherichia coli, UniProt P27302); experiment: as above; format: binding; conditions: read-out: Kd(high)^HPA
T2 construct: gene tktA; N-terminal His6 tag, expressed in E. coli XL10-gold from pQR791; homodimer; purified sample is a mix of TKhigh (oxidised) and TKlow subunits
T2 sequence (P27302 whole entry): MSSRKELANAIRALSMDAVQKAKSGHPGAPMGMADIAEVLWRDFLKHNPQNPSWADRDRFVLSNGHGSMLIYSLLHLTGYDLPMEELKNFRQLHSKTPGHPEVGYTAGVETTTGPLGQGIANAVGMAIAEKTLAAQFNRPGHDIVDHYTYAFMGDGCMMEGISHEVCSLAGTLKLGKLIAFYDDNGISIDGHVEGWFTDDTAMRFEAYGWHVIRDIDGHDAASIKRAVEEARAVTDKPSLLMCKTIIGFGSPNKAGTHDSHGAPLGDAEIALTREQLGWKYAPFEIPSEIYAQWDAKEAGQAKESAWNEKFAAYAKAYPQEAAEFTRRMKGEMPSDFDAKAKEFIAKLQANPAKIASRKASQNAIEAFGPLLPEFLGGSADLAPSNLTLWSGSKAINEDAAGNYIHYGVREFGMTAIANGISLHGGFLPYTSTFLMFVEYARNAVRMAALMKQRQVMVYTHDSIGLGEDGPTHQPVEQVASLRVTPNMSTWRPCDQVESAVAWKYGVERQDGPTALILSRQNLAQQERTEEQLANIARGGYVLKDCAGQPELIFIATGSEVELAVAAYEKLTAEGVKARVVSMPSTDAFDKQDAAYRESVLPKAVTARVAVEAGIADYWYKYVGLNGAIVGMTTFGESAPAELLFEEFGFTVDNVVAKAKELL

T1 sequence (P27302 whole entry S385Y/D469T/R520Q): as the sequence (P27302 whole entry) above, with S385Y, D469T, R520Q counted along it

## O=C(O)C(=O)CO [HPA, β-hydroxypyruvate]
[1]; read-out: Kd(high)^HPA
  Kd: 3.61 ± 0.31 mM
[2]
  Kd: 3.42 ± 0.45 mM

## Cc1ncc(C[n+]2csc(CCO[P@](=O)(O)OP(=O)(O)O)c2C)c(N)n1 [TPP, thiamine pyrophosphate]
[1]; read-out: Kd(high)^TPP
  Kd: 0.0066 ± 0.00164 mM
